Data on 14 compounds can be found in US7141570B2, “N-aryl-2-oxazolidinone-5-carboxamides and their derivatives” (Pharmacia & Upjohn Company, priority 2002, dated 2006).

As usually defined, the melting point is the temperature, or range, at which the solid turns liquid. Take `CC(=O)NC[C@H]1CN(c2ccc(N3CCN(C(=O)CN4C(=O)c5ccc(N)cc5C4=O)CC3)c(F)c2)C(=O)O1` [Example 70, N-{[(5S)-3-(4-{4-[(5-Amino-1,3-dioxo-1,3-dihydro-2H-isoindol-2-yl)acetyl]piperazin-1-yl}-3-fluorophenyl)-2-oxo-1,3-oxazolidin-5-yl]methyl}acetamide]: the melting point was 241 to 243 °C (dec.).
Consider `CC(=O)NC[C@H]1CN(c2ccc(N3CCN(C(=O)CCCc4ccc(O)cc4)CC3)c(F)c2)C(=O)O1` [Example 42, N-{[(5S)-3-(3-Fluoro-4-{4-[4-(4-hydroxyphenyl)butanoyl]piperazin-1-yl}phenyl)-2-oxo-1,3-oxazolidin-5-yl]methyl}acetamide], for which the melting point is 119 to 120 °C (dec.).
`CCC(=S)NC[C@H]1CN(c2ccc(N3CCN(C(=O)COc4ccc(CN5CCOCC5)cc4)CC3)c(F)c2)C(=O)O1` [Example 7, N-({(5S)-3-[3-Fluoro-4-(4-{[4-(morpholin-4-ylmethyl)phenoxy]acetyl}piperazin-1-yl)phenyl]-2-oxo-1,3-oxazolidin-5-yl}methyl)propanethioamide] yielded a melting point of 159 to 160 °C.
In turn, `COc1ccc(CCCC(=O)N2CCN(c3ccc(N4C[C@H](CNC(C)=O)OC4=O)cc3F)CC2)cc1` [Example 41, N-{[(5S)-3-(3-Fluoro-4-{4-[4-(4-methoxyphenyl)butanoyl]piperazine-1-yl}phenyl)-2-oxo-1,3-oxazolidin-5-yl]methyl}acetamide] yielded a melting point of 164 to 165 °C.
The compound `CC(=O)NC[C@H]1CN(c2ccc(N3CCN(C(=O)CCC(=O)c4ccc(CN(C)C)cc4)CC3)c(F)c2)C(=O)O1` [Example 15, N-[((5S)-3-{4-[4-(4-{4-[(Dimethylamino)methyl]phenyl}-4-oxobutanoyl)-1-piperazinyl]-3-fluorophenyl}-2-oxo-1,3-oxazolidin-5-yl)methyl]acetamide] returned a melting point of 190 to 192 °C.
The compound `CCC(=S)NC[C@H]1CN(c2ccc(N3CCN(C(=O)COc4ccc(CN(CC)CC)cc4)CC3)c(F)c2)C(=O)O1` [Example 1, N-[((5S)-3-{4-[4-({4-[(Diethylamino)methyl]phenoxy}acetyl)piperazin-1-yl]-3-fluorophenyl}-2-oxo-1,3-oxazolidin-5-yl)methyl]propanethioamide] gave a melting point of 98 °C.
The compound `CN(C)Cc1ccc(C(=O)CCC(=O)N2CCN(c3ccc(N4C[C@H](CNC(=S)C5CC5)OC4=O)cc3F)CC2)cc1` [Example 14, N-[((5S)-3-{4-[4-(4-{4-[(Dimethylamino)methyl]phenyl}-4-oxobutanoyl)-1-piperazinyl]-3-fluorophenyl}-2-oxo-1,3-oxazolidin-5-yl)methyl]cyclopropanecarbothioamide] had a melting point of 174 to 175 °C.
For the compound `CC(=O)NC[C@H]1CN(c2ccc(N3CCN(C(=O)CCC(=O)c4ccc(CNC(=O)CN(C)C)cc4)CC3)c(F)c2)C(=O)O1` [Example 22, N^1-(4-{4-[4-(4-{(5S)-5-[(Acetylamino)methyl]-2-oxo-1,3-oxazolidin-3-yl}-2-fluorophenyl)piperazin-1-yl]-4-oxobutanoyl}benzyl)-N^2,N^2-dimethylglycinamide], the melting point is 160 to 160.5 °C.
`CCC(=S)NC[C@H]1CN(c2ccc(N3CCN(C(=O)CCC(=O)c4ccc(CN5CCOCC5)cc4)CC3)c(F)c2)C(=O)O1` [Example 16, N-({(5S)-3-[3-Fluoro-4-(4-{4-[4-(4-morpholinylmethyl)phenyl]-4-oxobutanoyl}-1-piperazinyl)phenyl]-2-oxo-1,3-oxazolidin-5-yl}methyl)propanethioamide] yielded a melting point of 160 °C.
As to `CCC(=S)NC[C@H]1CN(c2ccc(N3CCN(C(=O)COc4ccc(CN(C)C)cc4)CC3)c(F)c2)C(=O)O1` [Example 4, N-[((5S)-3{4-[4-({4-[(Dimethylamino)methyl]phenoxy}acetyl)piperazin-1-yl]-3-fluorophenyl}-2-oxo-1,3-oxazolidin-5-yl)methyl]propanethioamide], the melting point was 163 to 164 °C.
With `CC(=O)NC[C@H]1CN(c2ccc(N3CCN(C(=O)CCC(=O)c4ccc(Cl)cc4)CC3)c(F)c2)C(=O)O1` [Example 49, N-{[(5S)-3-(4-{4-[4-(4-Chlorophenyl)-4-oxobutanoyl]-1-piperazinyl}-3-fluorophenyl)-2-oxo-1,3-oxazolidin-5-yl]methyl}acetamide] the figure was 208 to 209 °C; with `CC(=O)NC[C@H]1CN(c2ccc(N3CCN(C(=O)CCC(=O)c4ccc(Br)cc4)CC3)c(F)c2)C(=O)O1` [Example 44, N-{[(5S)-3-(4-{4-[4-(4-Bromophenyl)-4-oxobutanoyl]-1-piperazinyl}-3-fluorophenyl)-2-oxo-1,3-oxazolidin-5-yl]methyl}acetamide], 197 to 198 °C.
As for `CC(=O)NC[C@H]1CN(c2ccc(N3CCN(C(=O)CCCc4ccc(NC(=O)CN)cc4)CC3)c(F)c2)C(=O)O1` [Example 60, N-(4-{4-[4-(4-{(5S)-5-[(Acetylamino)methyl]-2-oxo-1,3-oxazolidin-3-yl}-2-fluorophenyl)-1-piperazinyl]-4-oxobutyl}phenyl)-2-aminoacetamide], the melting point was 199 to 200 °C (dec.).
Take `CC(=S)NC[C@H]1CN(c2ccc(N3CCN(C(=O)CCC(=O)c4ccc(Cl)cc4)CC3)c(F)c2)C(=O)O1` [Example 50, N-{[(5S)-3-(4-{4-[4-(4-chlorophenyl)-4-oxobutanoyl]-1-piperazinyl}-3-fluorophenyl)-2-oxo-1,3-oxazolidin-5-yl]methyl}ethanethioamide]: the melting point is 215 to 216 °C (dec.).
